Measurements taken from patent US20240050436A1, “COMPOSITIONS AND METHODS USED FOR RETINAL ISCHEMIA OR DIABETES” (The United States GOVERNMENT As Represented By The …, priority 2021, published 2024).
“Also recorded” adds a separate entry of the source.

How the values were obtained:
p75^NTR on MSCs = target: T1, p75^NTR on MSCs (Mus musculus, UniProt Q9Z0W1); test: MSCs secretome: Western blotting of MSCs conditioned medium (CM); assay type: cell-based; conditions: Western blot of CM vs control CM; LM11A-31: 200 nM, 12 h; or p75NTR siRNA silencing
T1 construct: endogenous in cells; host or cells: GFP-labeled mouse mesenchymal stem cells (passages 5-9)
T1 sequence (Q9Z0W1 32-427): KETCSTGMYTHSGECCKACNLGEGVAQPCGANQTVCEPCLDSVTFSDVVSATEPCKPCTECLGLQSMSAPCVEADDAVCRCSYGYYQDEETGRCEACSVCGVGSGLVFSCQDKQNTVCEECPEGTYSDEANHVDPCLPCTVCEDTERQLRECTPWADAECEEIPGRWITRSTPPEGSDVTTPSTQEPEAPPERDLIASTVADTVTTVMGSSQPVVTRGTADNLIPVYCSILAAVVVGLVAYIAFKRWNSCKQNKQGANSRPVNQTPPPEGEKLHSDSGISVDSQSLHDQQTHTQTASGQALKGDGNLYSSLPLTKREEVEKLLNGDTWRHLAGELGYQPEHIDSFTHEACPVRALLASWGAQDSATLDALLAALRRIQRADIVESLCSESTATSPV
Method: (§1) GFP-labeled mouse MSCs were obtained as a kind gift from Dr. William D. Hill (MUSC, Charleston, SC) and used between passages 5-9. MSCs cells were cultured in high glucose DMEM (4.5 g/L D-glucose, Thermo-Fisher Grand Island, NY, USA) supplemented with 10% FBS and 1% penicillin/streptomycin at 37° C. and 5% CO2. Knocking down p75NTR expression was performed according to manufacturer's instructions (Santa Cruz Biotechnology Inc., Dallas, TX, USA). Briefly, MSCs were shifted to antibiotic-free medium over night when 60-80% confluent. Cells were transfected with Si-RNA against p75NTR receptor (sc-37268) or scrambled (sc-37007) with the aid of lipofectamine transfection reagent (sc-29528) for 6 h. DMEM medium containing 2× of FBS and antibiotic was added on top of pure transfection medium for an extra 12 h. Next, transfection medium was removed and cells were allowed to recover in 1×DMEM medium for 6 h. For in vivo studies, cells were collected in sterile PBS (50,000 cells/μL) for intravitreal injection 48 h after I/R. For additional set of experiments, MSCs were treated with the p75NTR modulator (LM11A-31, 200 nM). Confluent MSCs (80% confluent) were treated with LM11A-31 or its vehicle for 12 h. Then, condition media were collected as well as cell lysates using mirVANA™ PARIS™ Kit (Ambion Inc., Austin, TX, USA), according to manufacturer's instructions.

HREs [1] = test: RT-PCR gene expression in HREs treated with CM of p75NTR-modulated MSCs; assay type: cell-based, human
Method: as §1
All human retinal endothelial (HRE) cell studies were in accordance with Association for Research in Vision and Ophthalmology and Charlie Norwood Veterans Affairs Medical Center, research and ethics committee. HREs and supplies were purchased from Cell Systems Corporation (Kirkland, WA, USA) and VEC Technology Inc. (Rensselaer, NY, USA).
Retinas samples and MSCs lysates were processed using (mirVANA™ PARIS™ Kit, Ambion Inc., Austin, TX, USA) and RNA was purified and quantified as described by the manufacturer's instructions. A one-step quantitative RT-PCR kit (Invitrogen, Carlsbad, CA, USA) was used to amplify 10 ng retinal mRNA. Quantitative PCR was conducted using a StepOnePlus qPCR system (Applied BioSystems, Life Technologies, Waltham, MA, USA). For HREs, RNA isolation was performed using the TRIzol Reagent (Invitrogen, Waltham, MA, USA), according to the manufacturer's instructions. RNA concentration was quantified by spectrophotometry at 260 nm using Nanodrop 2000 (Thermo Fisher Scientific, Waltham, MA, USA). A total of 1 μg of RNA was reverse transcribed to prepare cDNA using the RNA to cDNA EcoDry premix (Takara Bio USA Inc., Mountain View, CA, USA). Real-time PCR was performed using the CFX96 PCR instrument with matched primers (See Table 1) and Universal SYBR Green Supermix (Bio-Rad, Hercules, CA, USA). The following PCR parameters were used: initial denaturation cycle at 95° C. for 3 min, followed by 40 amplification cycles at 95° C. for 10 s, 56° C. for 15 s, and 72° C. for 1 min. The results are presented as the fold change in relative gene expression quantified using the delta-delta CT method and normalized to internal controls (18 S, GAPDH) and expressed relative to controls.

HREs [2] = test: Cell migration assay (wounded HREs, CM of treated MSCs); assay type: cell-based, human; conditions: 12 h of treatment with CM of modulated MSCs
Method: HREs were grown to confluence and then were wound with a single sterile cell scraper of constant diameter. Cells were divided into three groups, treated with regular media without FBS, and 1:1 mixture of FBS-free regular media and CM of vehicle- or treated-MSCs. Images of wounded areas were taken immediately after adding the treatment using a phase contrast microscope, and baseline were marked under the cell culture dish with blue marker. After 12 h, images of same field were taken and % cell migration was calculated. Each condition was verified in triplicate and was repeated using independent cultures.

HREs [3] = test: Tube formation assay (Matrigel); assay type: cell-based, human; conditions: 24 h of treatment with CM of modulated MSCs
Method: Corning Matrigel Matrix (10 mg protein/mL) Growth Factor Reduced (Corning Inc., Cat. No. 354230, Corning, NY, USA) was used for tube formation assay. Then, 289 μL of cold (4° C.) Matrigel per well was added into chilled 24-well flat-bottom tissue culture plate (USA Scientific Inc., Ocala, FL, USA) and polymerized for 1 h at 37° C., 5% CO2 incubator. HREs were trypsinized and separated into different groups. Each group of cells was centrifuged and cell pellets were resuspended in regular media without FBS, same media with 1:1 mixture of FBS free regular media and CM of vehicle- or treated-MSCs. Then 300 μL of the cell suspension was added onto each well of Matrigel coated 24-well culture plate and incubated at 37° C. After 24-h, cells forming tube structures were analyzed by microscopy. Cells in five replicate fields of triplicate wells were digitally photographed with an EVOS microscope (Thermo Fisher Scientific Inc., Waltham, MA, USA). The images for Tube formation assay were analyzed using Angiogenesis analyzer for imageJ. An area of 1.8 mm2 from each well was analyzed with imageJ ver. 1.53c, and 3 wells were analyzed per group. […] The total tubular length was calculated as the average of the total tubule length from three wells, five random fields per well.

p75^NTR [4] = target: T2, p75^NTR (Mus musculus, UniProt Q9Z0W1); test: Visual acuity test (cue version of Morris water maze) post retinal I/R; assay type: in vivo; conditions: WT mice
T2 construct: Interventional treatment with the p75^NTR modulator LM11A-31 (50 mg/Kg, po, QOD) for 12 weeks; from tissue; host or cells: living STZ-diabetic mice (kidney, urine, blood, body weight)
T2 sequence (Q9Z0W1 32-427): T1 sequence (Q9Z0W1 32-427)
Method: For surgeries, mice were anesthetized with intraperitoneal ketamine (50 mg/kg; Hospira, Inc., Lake Forest, IL, USA) and xylazine (10 mg/kg; Akorn, Decatur, IL, USA). Retinal ischemia/reperfusion (I/R) was performed as described previously in Coucha, M. et al. Modulating Expression of Thioredoxin Interacting Protein (TXNIP) Prevents Secondary Damage and Preserves Visual Function in a Mouse Model of Ischemia/Reperfusion. Int. J. Mol. Sci. 2019, 20. Briefly, pupils were dilated with 1% Atropine Sulfate (Akorn, Inc., Lake Forest, IL, USA). The anterior chamber was cannulated with a 32 gauge needle attached to a line from a saline reservoir at a height calibrated to yield 120 mmHg. The intraocular pressure (IOP) was elevated to 120 mmHg for 45-60 min. I/R injury and choroidal nonperfusion was evident by whitening of the anterior segment of the globe and blanching of the episcleral veins. During infusion, topical anesthesia (0.5% tetracaine HCL, Bausch & Lomb, NJ, USA) was applied to the cornea. After ischemia, the needle was immediately withdrawn, allowing for rapid reperfusion, IOP was normalized, and reflow of the retinal vasculature was confirmed by observation of the episcleral veins. […]
Visual acuity was assessed behaviorally by training and testing mice on the “cue” version of the Morris water maze task. […]

p75^NTR [5] = target: T2, p75^NTR; test: Interventional treatment of STZ-diabetic mice (16-weeks diabetes): kidney and systemic readouts; assay type: in vivo; conditions: 50 mg/Kg, po, QOD, 12 weeks
p75NTR = conditions: cultures of p75NTR−/− neurons; cited from earlier work
[6] = cited from earlier work
[7] = cited from earlier work; remark: listed apart in the source
[8] = normal young and elderly individuals; cited from earlier work
[9] = HREs treated with CM of modulated MSCs vs controls
[10] = HREs treated with CM of modulated MSCs, fold change, delta-delta CT, relative to controls

For `CCC(C)C(N)C(=O)NCCN1CCOCC1` (stereo not shown) [LM11A-31, 2-amino-3-methyl-pentanoic acid [2-morpholin-4-yl-ethyl]-amide], the “NGF in MSCs conditioned medium, increase” value (p75^NTR on MSCs) was roughly 4 Fold, the “SDF-1α in MSCs conditioned medium, increase” value (p75^NTR on MSCs) was roughly 14.9 Fold and the “VEGF-A in MSCs conditioned medium, increase” value (p75^NTR on MSCs) was 1.6 Fold. The “Akt gene expression in HREs, increase” value (HREs [1]; [9]) was roughly 2.7 Fold, the “Bax gene expression in HREs, increase” value (HREs [1]; [9]) was roughly 1.9 Fold and the “Bcl-2 gene expression in HREs, increase” value (HREs [1]; [9]) was roughly 2.5 Fold. For the same compound, the “VEGF-A gene expression in HREs, increase” value (HREs [1]; [9]) was roughly 3.5 Fold, the “p53 gene expression in HREs, change” value (HREs [1]; [9]) was “no change” and the “p53 relative gene expression in HREs (mean±SEM)” value (HREs [1]; HREs treated with CM of modulated MSCs, first value of the printed pair) was 3.7±3.4. For the same compound, the “Akt relative gene expression in HREs (mean±SEM)” value (HREs [1]; [10]) was 2.68±0.53, the “Bax relative gene expression in HREs (mean±SEM)” value (HREs [1]; [10]) was 1.88±0.105 and the “Bcl-2 relative gene expression in HREs (mean±SEM)” value (HREs [1]; [10]) was 2.45±0.24. For the same compound, the “VEGF-A relative gene expression in HREs (mean±SEM)” value (HREs [1]; [10]) was 3.58±0.58, the “HREs migration, increase” value (HREs [2]) was 1.34 Fold and the “number of junction points, increase” value (HREs [3]) was 1.5 Fold. For the same compound, the “tube length, increase” value (HREs [3]) was 1.4 Fold, the “time to reach the platform (visual-clue water maze)” value (p75^NTR [4]; I/R both eyes, 50 mg/kg/day oral gavage every other day from 48 h post I/R, 6, 9, 12, 15 days post I/R, 50 mg/kg/day) was “significantly ameliorated; also recorded: attenuated” and the “area under the curve (AUC) of time to platform after 15 days” value (p75^NTR [4]; I/R, 50 mg/kg/day oral gavage every other day) was “normalized”. For the same compound, the “UAER normalized to creatinine” value (p75^NTR [5]; control animals) was “did not alter baseline”, the blood glucose level (p75^NTR [5]; control or diabetic animals) was “did not alter” and the “renal fibrotic markers (Fibronectin, alpha-SMA)” value (p75^NTR [5]; controls) was “did not alter base-line”. For the same compound, the “Urinary albumin excretion rate (UAER) normalized to creatinine” value (p75^NTR [5]; diabetic animals) was “significantly improved; also recorded: increase”, the body weight (p75^NTR [5]; diabetic animals) was “preserved the weight” and the “glomeruli areas (PAS staining)” value (p75^NTR [5]; diabetic animals) was “significantly preserved glomeruli areas back to normal glomeruli size”. The “glomeruli size (Trichome staining)” value (p75^NTR [5]; diabetic animals) was “preserved glomeruli size”, the “kidney NGF levels, Western Blot” value (p75^NTR [5]; diabetic animals) was “restored” and the “kidney TNF-α expression (inflammatory marker), Western Blot” value (p75^NTR [5]; diabetic animals) was “significantly prevented the increase; also recorded: significantly improved”. The “kidney p-JNK (apoptotic marker), Western Blot” value (p75^NTR [5]; diabetic animals) was “significantly prevented the increase; also recorded: significantly improved”, the “ratio of kidney weight to body weight” value (p75^NTR [5]; diabetic animals) was “significantly improved” and the “renal TGF-beta expression” value (p75^NTR [5]; diabetic animals) was “significantly prevented the increase; also recorded: significantly improved”. For the same compound, the “renal and urinary inflammation (kidney IL-6 and IL-1β mRNA, urine IL-1β by ELISA)” value (p75^NTR [5]; diabetic animals) was “significantly prevented the increase”, the “renal fibrosis (Trichome staining)” value (p75^NTR [5]; diabetic animals) was “significantly improved fibrosis” and the “renal fibrotic markers (Fibronectin, alpha-SMA), Western Blot” value (p75^NTR [5]; diabetic animals) was “significantly prevented the increase; also recorded: significantly improved”. The “p75^NTR expression in kidney sections (immunohistochemistry)” value (p75^NTR [5]; diabetic or control animals) was “did not alter”, the “ratio of kidney weight to body weight” value (p75^NTR [5]; treated controls) was “did not alter the baseline” and the “specificity to p75NTR: protective activity” value (p75NTR) was “complete loss of its protective activity”. The blood-brain barrier crossing ([6]; 50 mg/kg, oral administration) was “cross the blood-brain barrier”, the oral bioavailability ([6]; in vivo, po) was “orally bioavailable” and the water solubility [7] was “water-soluble”. For the same compound, the “phase I safety trial outcome” value [8] was “successfully completed”.
